Data: US20100292175A1, “USE OF HYDROXYFLAVAN DERIVATIVES FOR TASTE MODIFICATION” (Leibniz-Institut fur Pflanzenbiochemie, priority 2009, published 2010)

Legend:
Assay type in all cases: in vivo
[1] = Bitter reduction of a bitter substance solution (caffeine), panel of experts; conditions: for Bitter sensation (1-10) Sample (caffeine + substance): grading 1 [not bitter] to 10 [extremely bitter]
Excerpt: To quantify the reduction (i.e. the masking or reduction) of the bitter sensation in a sample, the bitterness of a solution containing 500 ppm of caffeine was compared by a panel of experts in each case with a sample which contained 500 ppm of caffeine and additionally 50 ppm or 100 ppm of a substance to be assessed (in respect of the bitter-reduction ability) (grading: 1 [not bitter] to 10 [extremely bitter]).
For the evaluation, i.e. the calculation of the reduction (in %) of the bitter sensation, the mean values of the assessments by the panel of experts of the caffeine solution and the sample, to be compared, containing caffeine and a substance to be assessed were used in each case. In this respect, 2,4-dihydroxybenzoic acid (2,4-DHB) was used as the comparison (reference) according to U.S. Pat. No. 5,643,941.

[2] = Enhancement of the sweet sensation of a sugar solution, Comparative Test 1, panel of experts; conditions: for Sweet sensation (1-10) Sample (sucrose + substance): grading 1 [not sweet] to 10 [extremely sweet]; for synergistic enhancement of the sweet taste of a sweet-tasting substance: according to our own experiments
Excerpt: To quantify the enhancement of the sweet sensation, the sweetness of a 5% sucrose solution was compared by a panel of experts in each case with a sample which contained 5% of sucrose as well as 50 ppm or 100 ppm of a compound of formula (I) to be used according to the invention (grading: 1 [not sweet] to 10 [extremely sweet]).
For the evaluation, i.e. the calculation of the enhancement (in %) of the sweet sensation, the mean values of the assessments by the panel of experts of the sucrose solution and the sample, to be compared, containing sucrose and a compound of formula (I) were used in each case.

[3] = Comparative Test 2: inherent sweetness (sucrose equivalence) in water, panel of experts
Description: The inherent sweetness of compound 2 from Example 1, which was dissolved in water in a pure form in different concentrations (0.0025 or 0.0050% by weight in water) was determined by a panel of experts (panelists) using a series of comparisons of different sucrose concentrations in water (0; 0.25; 0.5; 0.75; 1; 1.5; 2; 3; 4 and 5% by weight sucrose in water).
(§1) The panelists were asked to test each solution of compound 2 in water against the sucrose series and to grade them according to their degree of sweetness (sucrose equivalent). It was possible to determine the inherent sweetness of compound 2 for the above-mentioned concentrations from the results provided by the panelists. In addition to the sucrose equivalence in water (i.e. without sucrose), the sucrose equivalence in a 5% sucrose solution was also determined.

[4] = Comparative Test 2: sucrose equivalence in a 5% sucrose solution, panel of experts; conditions: for Sucrose equivalence in a 5% sucrose solution, Calculation (5 + x) %: purely additive calculation; for synergy or synergistic additional effect: determined vs calculated sucrose equivalence
Description: as §1
It was possible to establish a clear synergistic sweetness enhancement even at a low concentration, not sweet per se, of approximately 25 ppm of compound 2 (from Example 1). From a purely calculational point of view, it was to be expected that a 5% sucrose solution (i.e. a sucrose solution which corresponds in sensory manner by definition to 5% sucrose equivalents) which contains 25 ppm or 50 ppm of compound 2 (from Example 1) produced a sweetness of approximately 5.84 or 6.45 sucrose equivalents by a purely additive effect of the inherent sweetness of compound 2 (see the determined sucrose equivalence in water). However, the sensory assessment of such a 5% sucrose solution with 25 ppm or 50 ppm of compound 2 (from Example 1) by the panelists produced an averaged sucrose equivalence of 6.8% or 8.2%. Considering the values to be expected from a purely calculational point of view, this corresponds to a synergy or a synergistic additional effect of approximately 17% or 27%.

[5] = 50 ppm substance + 500 ppm caffeine vs 500 ppm caffeine solution
[6] = 50 ppm substance + 500 ppm caffeine
[7] = 50 ppm substance + 5% sucrose vs 5% sucrose solution

Row | SMILES | Reduction of the bitter sensation [1, 5] [%] | Bitter sensation (1-10) Sample (caffeine + substance) [1, 6] | Enhancement of the sweet sensation [2, 7] [%] | Sweet sensation (1-10) Sample (sucrose + substance) ([2]; 50 ppm substance + 5% sucrose) | other results
1 | COc1ccc(C2CCc3ccc(O)cc3O2)cc1O (racemic) [compound 2, 3′,7-dihydroxy-4′-methoxyflavan] | 27 | 3.9 ± 1.9 | 57 | 8.1 ± 1.3 | synergistic enhancement of the sweet taste of a sweet-tasting substance [2]: particularly strong synergistic enhancement; Determination of the sucrose equivalence in water (without sucrose) ([3]; 0.0025 % by weight in water): 0.84%; Determination of the sucrose equivalence in water (without sucrose) ([3]; 0.0050 % by weight in water): 1.45%; Sucrose equivalence in a 5% sucrose solution, Determination ([4]; 0.0025 % by weight (25 ppm) in 5% sucrose solution): 6.8%; Sucrose equivalence in a 5% sucrose solution, Calculation (5 + x) % ([4]; 0.0025 % by weight): 5.84%; Sucrose equivalence in a 5% sucrose solution, Determination ([4]; 0.0050 % by weight (50 ppm) in 5% sucrose solution): 8.2%; Sucrose equivalence in a 5% sucrose solution, Calculation (5 + x) % ([4]; 0.0050 % by weight): 6.45%; sweetness to be expected by a purely additive effect of the inherent sweetness ([4]; 25 ppm in 5% sucrose solution): approximately 5.84 sucrose equivalents; synergy or synergistic additional effect ([4]; 25 ppm in 5% sucrose solution): approximately 17%; sweetness to be expected by a purely additive effect of the inherent sweetness ([4]; 50 ppm in 5% sucrose solution): ~6.45 sucrose equivalents; synergy or synergistic additional effect ([4]; 50 ppm in 5% sucrose solution): ~27%
2 | O=C(O)c1ccc(O)cc1O [2,4-DHB, 2,4-dihydroxybenzoic acid, reference compound] | – | – | – | – | Reduction of the bitter sensation ([1]; 100 ppm substance + 500 ppm caffeine vs 500 ppm caffeine solution): 3%; Bitter sensation (1-10) Sample (caffeine + substance) ([1]; 100 ppm substance + 500 ppm caffeine): 5.0 ± 1.0
3 | Oc1ccc(C2CCc3ccc(O)cc3O2)cc1 (stereo not shown) [compound 1, 4′,7-dihydroxyflavan] | – | – | – | – | Enhancement of the sweet sensation ([2]; 100 ppm substance + 5% sucrose vs 5% sucrose solution): 21%; Sweet sensation (1-10) Sample (sucrose + substance) ([2]; 100 ppm substance + 5% sucrose): 6.2 ± 1.5; synergistic enhancement of the sweet taste of a sweet-tasting substance [2]: particularly strong synergistic enhancement
4 | COc1cc(C2CCc3ccc(O)cc3O2)ccc1O (stereo not shown) [compound 3, 4′,7-dihydroxy-3″-methoxyflavan] | 15 | 4.1 ± 1.4 | – | – | –
5 | Oc1ccc(C2CCc3c(O)cc(O)cc3O2)cc1 (stereo not shown) [compound 14, 4′,5,7-trihydroxyflavan] | 26 | 3.8 ± 1.9 | – | – | –
6 | COc1ccc(C2CCc3c(O)cc(O)cc3O2)cc1O (stereo not shown) [compound 15, 3′,5,7-trihydroxy-4′-methoxyflavan] | 15 | 3.8 ± 1.5 | 21 | 5.8 ± 1.6 | –
7 | COc1cc(C2CCc3c(O)cc(O)cc3O2)ccc1O (stereo not shown) [compound 16, 4′,5,7-trihydroxy-3′-methoxyflavan] | 5 | 4.1 ± 2.0 | – | – | –
8 | COc1ccc([C@@H]2CCc3ccc(O)cc3O2)cc1O [compound S-2, (2S)-3′,7-dihydroxy-4″-methoxyflavan] | 16 | 3.9 ± 1.5 | 36 | 7.8 ± 1.7 | –
